# According to paper PMC6972920, “Structure-based development of caged dopamine D2/D3 receptor antagonists” (Scientific Reports, 2020):
# “Also recorded” adds a separate entry of the source.
# Tests used:
# [1] = molecular target: human dopamine receptor subtype D2S (Homo sapiens, UniProt P14416); test: Radioligand displacement, [3H]spiperone, CHO cell membranes; type: binding; details: [3H]spiperone; mean ± SEM of 4-9 experiments; compounds 1, 2, 3: ± SD of two experiments; read-out: Ki value D2S
# Chain of human dopamine receptor subtype D2S (P14416 1-414 isoform P14416-2): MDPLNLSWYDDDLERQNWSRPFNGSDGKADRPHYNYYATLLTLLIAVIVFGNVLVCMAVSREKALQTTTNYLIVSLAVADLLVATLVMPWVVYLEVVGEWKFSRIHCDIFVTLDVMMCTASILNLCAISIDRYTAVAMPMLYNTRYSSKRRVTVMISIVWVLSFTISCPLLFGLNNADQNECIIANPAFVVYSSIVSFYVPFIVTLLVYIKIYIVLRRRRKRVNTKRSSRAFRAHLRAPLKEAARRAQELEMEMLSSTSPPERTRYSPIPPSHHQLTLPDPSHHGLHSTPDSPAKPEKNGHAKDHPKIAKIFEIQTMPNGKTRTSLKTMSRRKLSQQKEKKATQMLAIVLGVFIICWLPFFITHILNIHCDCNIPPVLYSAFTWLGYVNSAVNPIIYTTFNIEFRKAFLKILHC
# [2] = molecular target: T1, dopamine D2S receptor co-expressed with hybrid Gαqi in HEK293T cells (Homo sapiens, UniProt P14416); test: IP accumulation assay (IP-One HTRF), inhibition of 10 nM quinpirole; type: cell-based; details: for Emax: HEK-293T, in presence of 10 nM quinpirole, relative to quinpirole (100%) and buffer (0%), read-out: inhibitory effect Emax; for IC50: blocking of the agonist effect of 10 nM quinpirole, ± SEM, 4-6 experiments, read-out: inhibitory effect IC50
# T1 construct: expressed in transfected cells; host or cells: HEK-293T cells, transient co-transfection
# T1 sequence (P14416 1-414 isoform P14416-2): as above
# [3] = molecular target: T2, D2S receptor (HEK293T cells co-transfected with D2S and Gαqi) (Homo sapiens, UniProt P14416); test: Illumination experiment: test compound solution irradiated at 365 nm before addition to cells, quinpirole stimulated IP accumulation; type: cell-based; details: for irradiation time after which no quinpirole activity could be observed / agonist effect of quinpirole remaining after 2 seconds of irradiation: 50 nM caged compound, 365 nm; for irradiation time for complete release (uncaging) of dechloroeticlopride: 50 nM, irradiation at 365 nm, solution irradiated before addition to cells
# T2 construct: expressed in transfected cells; host or cells: HEK-293T cells, transient co-transfection
# T2 sequence (P14416 1-414 isoform P14416-2): as above
# Text: […]. Mean curves ± SEM of 4–9 individual curves each done in triplicates. […]. Mean curves from 3–4 experiments each done in duplicate. […]. While 4 (MG307) (green bars) is completely released after 10 sec, the uncaging of 5 (red bars) needs 20 sec. […]. Mean bars ± SEM derived from 3–11 individual experiments each done in quintuplicates. Irradiation with a solution of test compound before addition to the cellular test system. […]. Means ± SEM from 6 experiments in quintuplicates.
# […]. Actually, we observed an onset of a strong inverse agonist effect on quinpirole-induced IP accumulation after irradiation of the nitrobenzyl-caged compound 4 (MG307). […] […]. […] To complement uncaging of the test compounds by irradiation of the test compounds before addition to receptor by a biologically more significant experiment, we investigated whether uncaging can also be accomplished directly in the cellular system. […] In fact, quinpirole-promoted IP accumulation was substantially attenuated after irradiation for 10 or 20 sec. […] […]. […] […].
# HEK293T cells were transiently co-transfected with D2S and Gαqi. Solutions of the test compounds were irradiated at λ = 365 nm using the same LED as for the photochemistry experiments (see above) for 2, 5, 10 or 20 sec and the test compound was added to the cell system immediately after illumination. […]. Accumulation of IP was determined as described above. […]. Basal activity (buffer) was set as 0%. As a control, quinpirole was irradiated for 20 sec without observing any difference to the effect of the untreated analog. […]. All irradiation experiments were carried out in the dark or under dim light.
# [4] = molecular target: T1, dopamine D2S receptor co-expressed with hybrid Gαqi in HEK293T cells; test: IP accumulation assay (IP-One HTRF), agonist / inverse agonist effect; type: cell-based; details: for functional properties in IP accumulation assay (in words): D2S receptors; for Emax: HEK-293T, relative to full effect of quinpirole (100%) and buffer (0%); for EC50: IP accumulation, ± SEM, 3-8 experiments, negative Emax = inverse agonist effect
# [5] = Compound stability and photolysis in aqueous buffer monitored by HPLC; type: physicochemical; details: for behaviour upon illumination with λp = 365 nm (in words): aqueous buffer, LED 365 nm, HPLC; for stability in the absence of light (in words): dark, storage and solution, HPLC/LCMS; for remaining fraction of the initial concentration: incubation in aqueous buffer at ambient light for 1 h
# Method: All measurements were performed in aqueous buffer solution. Compound stability and photolysis was monitored by HPLC. […] Excitation of NB- and DMNB-type cages to trigger photolysis is usually performed with light of 300–400 nm. This absorption profile may limit the wavelength range for cage photolysis, as simultaneous excitation of the core pharmacophore may trigger photolytic degradation of the desired product. We performed photolysis experiments using a near UV light-emitting diode (LED) light source with a peak wavelength of λp = 365 nm and a spectrum half width of Δλ = 9 nm.
# No unspecific degradation of the pharmacophore was observed, resulting in constant concentration of the desired product. […] The exposure to ambient light for longer time led to partial photolytic degradation. After incubation in aqueous buffer at ambient light for 1 h, we detected remaining 51% and 62% of the initial concentrations of 4 (MG307) and 5, respectively.
# For compound characterization, UV/Vis absorption spectra of samples with c = 0.1 mM in methanol were measured on an Analytik Jena Specord 200 Plus spectrometer (λ = 210–400 nm). Irradiation experiments to trigger photolysis were performed in open HPLC glass vials using a LED (λ = 365 nm, 4.5 V, 0.7 A) to irradiate the samples from top. An aqueous buffer solution served as solvent (50 mM Tris, 1 mM EDTA, 50 mM MgCl2, 100 µg/ml bacitracin, 5 µg/ml soybean trypsin inhibitor), with initial sample concentrations of […] and sample volumes of 100 µl. Photolysis was monitored by HPLC as specified before (eluent system 1). […] Unless specified differently, all experiments were performed in triplicate.
# [6] = molecular target: human dopamine receptor subtype D2L (Homo sapiens, UniProt P14416); test: Radioligand displacement, [3H]spiperone, CHO cell membranes; type: binding; details: [3H]spiperone; mean ± SEM of 4-9 experiments; compounds 1, 2, 3: ± SD of two experiments; read-out: Ki value D2L
# Chain of human dopamine receptor subtype D2L (P14416 whole entry): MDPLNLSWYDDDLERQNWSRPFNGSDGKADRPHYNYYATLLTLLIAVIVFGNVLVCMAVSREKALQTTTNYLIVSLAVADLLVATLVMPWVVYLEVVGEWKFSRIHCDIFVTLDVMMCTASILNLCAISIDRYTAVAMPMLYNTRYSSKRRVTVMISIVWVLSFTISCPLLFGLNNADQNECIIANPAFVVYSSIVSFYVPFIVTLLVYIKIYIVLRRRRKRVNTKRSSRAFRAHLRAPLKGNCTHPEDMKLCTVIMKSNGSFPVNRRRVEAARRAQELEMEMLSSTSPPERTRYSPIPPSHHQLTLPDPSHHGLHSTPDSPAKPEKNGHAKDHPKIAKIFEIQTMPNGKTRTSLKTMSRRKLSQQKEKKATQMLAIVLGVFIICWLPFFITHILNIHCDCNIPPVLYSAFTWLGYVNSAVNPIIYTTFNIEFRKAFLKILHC
# [7] = Quantum yield determination of uncaging (365 nm LED); type: physicochemical; details: for quantum yield φ for photolytic liberation of dechloroeticlopride: 365 nm; for quantum yield ϕ: 0.1 mM in aqueous buffer; for quantum yield ϕ / yield of liberated dechloroeticlopride: 365 nm LED
# Method: Quantum yield determination. Quantum yields were determined in the following setup: translation stages (horizontal and vertical): Thorlabs DT 25/M or DT S25/M; photographic lens with f = 50 mm; magnetic stirrer: Faulhaber motor (1524B024S R) with 14:1 gear (15A); PS19Q power sensor from Coherent; PowerMax software; adjustable power supply “Basetech BT-153 0-15 V/DC 0-3 A 45 W” [2].
# Measurements were performed in a covered apparatus to minimize the influence of ambient light. A 10 mm Hellma® quartz fluorescence cuvette with solvent (aqueous buffer solution, 2 ml) and a stirring bar was placed in the beam of a 365 nm LED and the transmitted power (Pref = 4.40 mW) was measured by a calibrated photodiode horizontal to the cuvette. The content of the cuvette was changed to a 0.1 mM solution of the respective caged compound in aqueous buffer (2 ml) with a stirring bar. The transmitted power was measured analogously to the blank solution. The sample was further irradiated and the transmitted power as well as the respective yield of liberated benzamide dechloroeticlopride was recorded after different times. The quantum yield was then calculated with the following […]
# ϕ = N௉ = c௉ ∙ V ∙N஺ ∙ h ∙c
# ϕ = quantum yield h = Planck constant
# N௉ = number of product molecules formed c = speed of light
# N௉௛.௔௕௦. = number of absorbed photons P௔௕௦. = radiant power absorbed
# c௉ = product concentration ∆t = irradiation time
# V = sample volume λ = irradiation wavelength […]
# entry compound irradiation time Pabs. yield ϕ
# [8] = molecular target: human dopamine receptor subtype D3 (Homo sapiens, UniProt P35462); test: Radioligand displacement, [3H]spiperone, CHO cell membranes; type: binding; details: mean ± SEM of 4-9 experiments, compounds 1, 2, 3: ± SD of two experiments
# Chain of human dopamine receptor subtype D3 (P35462 whole entry): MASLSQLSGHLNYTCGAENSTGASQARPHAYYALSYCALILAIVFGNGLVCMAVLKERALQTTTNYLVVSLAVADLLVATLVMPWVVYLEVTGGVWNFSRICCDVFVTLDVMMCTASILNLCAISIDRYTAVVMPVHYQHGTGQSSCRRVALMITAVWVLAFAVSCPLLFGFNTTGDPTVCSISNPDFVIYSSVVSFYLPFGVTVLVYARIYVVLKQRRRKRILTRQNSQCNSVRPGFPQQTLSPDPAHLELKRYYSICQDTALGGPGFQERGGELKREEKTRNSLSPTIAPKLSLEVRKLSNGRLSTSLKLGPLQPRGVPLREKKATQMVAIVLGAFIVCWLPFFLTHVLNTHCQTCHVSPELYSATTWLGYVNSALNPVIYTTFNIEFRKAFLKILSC
Compound,Ki [1] [nM],Emax [2] [%],IC50 [2] [nM],functional properties in IP accumulation assay (in words) [4],Emax [4] [%],EC50 [4] [nM],behaviour upon illumination with λp = 365 nm (in words) [5],Ki [6] [nM],quantum yield φ for photolytic liberation of dechloroeticlopride [7] [%],quantum yield ϕ ([7]; irradiation time 10 min) [%],yield of liberated dechloroeticlopride ([7]; irradiation time 10 min) [%],quantum yield ϕ ([7]; irradiation time 30 min) [%],yield of liberated dechloroeticlopride ([7]; irradiation time 30 min) [%],irradiation time after which no quinpirole activity could be observed ([3]; 10 nM quinpirole) [s],agonist effect of quinpirole remaining after 2 seconds of irradiation ([3]; 10 nM quinpirole),irradiation time for complete release (uncaging) of dechloroeticlopride [3] [s],stability in the absence of light (in words) [5],remaining fraction of the initial concentration [5] [%],Ki [8] [nM],also measured
"CCc1ccc(OC)c(C(=O)NC[C@@H]2CCCN2CC)c1O [dechloroeticlopride, (S)-3-Ethyl-N-[(1-ethylpyrrolidin-2-yl)methyl]-2-hydroxy-6-methoxybenzamide, reference compound]",1.2 ± 0.21,-20 ± 2.1,9.6,specific antagonist / inverse agonist,-17 ± 2.5,5.2 ± 0.8,more photostable; also recorded: no significant decomposition,2.4 ± 0.44,–,–,–,–,–,–,–,–,–,–,–,"effect of irradiation at 365 nm for 20 sec on the compound's effect on IP accumulation (in words) ([3]; controls, 10 nM quinpirole): does not affect"
"CCc1ccc(OC)c(C(=O)NC[C@@H]2CCCN2CC)c1OCc1ccccc1[N+](=O)[O-] [compound 4, (S)-3-Ethyl-N-[(1-ethylpyrrolidin-2-yl)methyl]-6-methoxy-2-[(2-nitrobenzyl)oxy]benzamide]",220 ± 66,-29 ± 5.6,850 ± 210,"inverse agonist properties were observed as well, but potency was low",-21 ± 3.3,220 ± 65,fast conversion to dechloroeticlopride within a few seconds,210 ± 18,0.5,2.9,11,1.2,16,10,less than 30%,10,stable under storage conditions and in solution for at least two days,51,200 ± 62,behaviour upon illumination with λp = 365 nm (in words) ([5]; listed as 4 (MG307)): clean photolysis
CCc1ccc(OC)c(C(=O)NC[C@@H]2CCCN2CC)c1OCc1cc(OC)c(OC)cc1[N+](=O)[O-] [compound 5],160 ± 35,-28 ± 4.6,990 ± 230,"inverse agonist properties were observed as well, but potency was low",-21 ± 5.5,280 ± 120,fast conversion to dechloroeticlopride within a few seconds; also recorded: clean photolysis,350 ± 47,2.1,0.7,17,0.3,22,20,less than 30%,20,stable under storage conditions and in solution for at least two days,62,140 ± 33,–
